Measurements from patent publication US9434745B2, “7-oxo-thiazolopyridine carbonic acid derivatives and their use in the treatment, amelioration or prevention of a viral disease” (Savira Pharmaceuticals GmbH, priority 2012, dated 2016).
pIC50: −log10 of the molar value.

Key:
[1] = test system: influenza A virus (IAV) A/Aichi/2/68 (H3N2); assay: Cytopathic effect (CPE) assay; assay type: cell-based; conditions: MDCK cells, 48 hrs; for inhibition at 50 µM: read-out: CPE % reduction
[2] = target: T1, influenza A virus (IAV) PA-Nter fragment (amino acids 1-209) (Influenza A virus, UniProt P31343); assay: FRET endonuclease activity assay; assay type: biochemical; conditions: for pIC50: from initial reaction velocities (v0) of RNA substrate cleavage
T1 construct: PA-Nter fragment (amino acids 1-209); made in house

MDCK cells = assay: Cytotoxicity in uninfected treated cells (CellTiter-Glo) within the CPE assay; assay type: cell-based, canine; conditions: at 50 μM
Experimental: After removal of the culture medium and one washing step with PBS, virus and compound were added together to the cells. In the wells used for cytotoxicity determination (i.e. in the absence of viral infection), no virus suspension was added. Instead, infection medium was added. Each treatment was conducted in two replicates. After incubation at 37° C., 5% CO2 for 48 hrs, each well was observed microscopically for apparent cytotoxicity, precipitate formation, or other notable abnormalities. Then, cell viability was determined using CellTiter-Glo luminescent cell viability assay (Promega). The supernatant was removed carefully and 65 μl of the reconstituted reagent were added to each well and incubated with gentle shaking for 15 min at room temperature. Then, 60 μl of the solution was transferred to an opaque plate and luminescence (RLU) was measured using Synergy HT plate reader (Biotek).
Relative cell viability values of uninfected-treated versus uninfected-untreated cells were used to evaluate cytotoxicity of the compounds. Substances with a relative viability below 80% at the tested concentration were regarded as cytotoxic and retested at lower concentrations.

Q: Which inhibition at 50 µM [1] does the source give for `COc1ccc(S(=O)(=O)Nc2nc3c(=O)c(C(=O)O)cn(Cc4ccc(Cl)cc4-c4ccccc4)c3s2)cc1` here?
A: 67%

Q: For `Cc1[nH]c2ncnn2c(=O)c1CC(=O)O`, which inhibition at 50 µM [1] is on record?
A: 28%

Q: What does the source list for `CCOC(=O)c1cn(Cc2ccccc2-c2ccccc2)c2sc(SC)nc2c1=O`?
A: FRET (result in words) [2]: inactive; inhibition at 50 µM [1]: 35%

Q: For `CCOC(=O)c1cn(CCc2ccccc2)c2cc(C3CCCC3)nn2c1=O`, which melting point is on record?
A: 162 to 164 °C

Q: Which melting point does the source give for `O=C(O)c1cn(CCc2ccc(Cl)cc2)c2cc(C3CC3)nn2c1=O` here?
A: 220 to 225 °C

Q: With `CC(C)c1cc2n(CCc3ccccc3)cc(C(=O)O)c(=O)n2n1` as the compound, how does the melting point read?
A: 220 to 225 °C

Q: Which melting point does the source give for `CCOC(=O)c1cn(CCc2cccc(C(F)(F)F)c2)c2cc(C3CC3)nn2c1=O` here?
A: 140 to 145 °C

Q: For `CCOC(=O)c1c[nH]c2cc(C(=O)NCCc3ccc(Cl)cc3)nn2c1=O`, which melting point is on record?
A: > 300 °C

Q: With `O=C(O)c1cn(CCc2ccccc2)c2cc(C3CC3)nn2c1=O` as the compound, how does the melting point read?
A: 185 to 190 °C

Q: Which melting point does the source give for `CCOC(=O)c1cn(Cc2ccccc2)c2cc(C3CC3)nn2c1=O` here?
A: 160 to 165 °C

Q: For `CCOC(=O)c1c[nH]c2nc(Nc3ccc(NC(C)=O)cc3)nn2c1=O`, which melting point is on record?
A: > 330 °C

Q: Which melting point does the source give for `CCOC(=O)c1c[nH]c2cc(C(=O)NC3CCN(Cc4ccccc4)CC3)nn2c1=O` here?
A: 264 to 266 °C

Q: Which inhibition at 50 µM [1] does the source give for `O=C(O)c1cn(Cc2ccccc2-c2ccccc2)c2sc(N3CCCCC3)nc2c1=O` here?
A: 83%

Q: Which inhibition at 50 µM [1] does the source give for `CNC(=O)c1cn(Cc2ccccc2-c2ccccc2)c2sc(NCc3ccccc3)nc2c1=O` here?
A: 41%

Q: For `CCOC(=O)Cc1c[nH]c2cc(-c3ccccc3)nn2c1=O`, which melting point is on record?
A: 245 to 250 °C

Q: With `O=C(O)c1cn(CCc2cccc(Cl)c2)c2cc(C3CC3)nn2c1=O` as the compound, how does the melting point read?
A: 230 to 235 °C

Q: Which melting point does the source give for `O=C(O)Cc1c[nH]c2nc(Nc3ccccc3)nn2c1=O` here?
A: 279 to 281 °C

Q: Which melting point does the source give for `O=C(O)c1c[nH]c2cc(C3CC3)nn2c1=O` here?
A: 275 to 278 °C

Q: With `O=C(O)c1cn(CCc2ccccc2)c2cc(C3CCCC3)nn2c1=O` as the compound, how does the melting point read?
A: 198 to 200 °C

Q: Which melting point does the source give for `CCOC(=O)c1cn(CCc2ccccc2)c2cc(C3CC3)nn2c1=O` here?
A: 155 to 160 °C

Q: Which melting point does the source give for `O=C(O)c1cn(Cc2ccccc2)c2cc(C3CCCC3)nn2c1=O` here?
A: 213 to 215 °C

Q: For `O=C(O)c1cn(Cc2ccccc2-c2ccccc2)c2nc(NC3CCCC3)sc2c1=O`, which inhibition at 50 µM [1] is on record?
A: 70%

Q: Which melting point does the source give for `O=C(O)c1cn(CCc2cccc(C(F)(F)F)c2)c2cc(C3CC3)nn2c1=O` here?
A: 200 to 205 °C

Q: Which melting point does the source give for `CC(C)c1cc2n(Cc3ccccc3)cc(C(=O)O)c(=O)n2n1` here?
A: 180 to 185 °C

Q: With `N#Cc1ccc(S(=O)(=O)Nc2nc3c(=O)c(C(=O)O)cn(Cc4ccccc4-c4ccccc4)c3s2)cc1` as the compound, how does the pIC50 [2] read?
A: 5.66

Q: And the pIC50 [1]?
A: 4.74

Q: With `O=C(NCCc1ccc(Cl)cc1)c1cc2[nH]cc(C(=O)O)c(=O)n2n1` as the compound, how does the melting point read?
A: > 300 °C

Q: Which melting point does the source give for `O=C(O)Cc1c[nH]c2cc(C(F)(F)F)nn2c1=O` here?
A: 320 to 324 °C

Q: With `CCOC(=O)c1cn(CCCc2ccccc2)c2cc(C3CC3)nn2c1=O` as the compound, how does the melting point read?
A: 150 to 155 °C

Q: For `O=C(O)c1c[nH]c2nc(NCc3ccccc3)nn2c1=O`, which melting point is on record?
A: 240 to 245 °C

Q: Which melting point does the source give for `CCOC(=O)c1c[nH]c2nc(NCc3ccc(Br)cc3)nn2c1=O` here?
A: 286 to 287 °C

Q: Which melting point does the source give for `CCOC(=O)c1cn(Cc2ccccc2)c2cc(C3CCCC3)nn2c1=O` here?
A: 148 to 150 °C

Q: For `O=C(O)c1cn(CCc2ccc(C(F)(F)F)cc2)c2cc(C3CC3)nn2c1=O`, which melting point is on record?
A: 225 to 230 °C

Q: With `O=C(O)c1cn(CCCc2ccccc2)c2cc(C3CC3)nn2c1=O` as the compound, how does the melting point read?
A: 95 to 100 °C

Q: With `CCOC(=O)Cc1c[nH]c2nc(Nc3ccccc3)nn2c1=O` as the compound, how does the melting point read?
A: 255 to 257 °C

Q: For `CCOC(=O)Cc1c[nH]c2cc(C3CC3)nn2c1=O`, which melting point is on record?
A: 280 to 283 °C

Q: For `O=C(O)c1cn(CCc2ccc(O)cc2)c2cc(C3CC3)nn2c1=O`, which melting point is on record?
A: 265 to 270 °C

Q: Which melting point does the source give for `O=C(O)c1c[nH]c2nc(NCc3cccc4ccccc34)nn2c1=O` here?
A: 245 to 250 °C

Q: With `CCOC(=O)c1cn(CCc2cccc(F)c2)c2cc(C3CC3)nn2c1=O` as the compound, how does the melting point read?
A: 160 to 165 °C

Q: Which melting point does the source give for `CCOC(=O)Cc1c[nH]c2nc(Nc3ccc(OC(C)C)cc3)nn2c1=O` here?
A: 235 to 240 °C

Q: Which melting point does the source give for `CCOC(=O)c1cn(Cc2ccccc2)c2cc(C(C)C)nn2c1=O` here?
A: 135 to 140 °C

Q: With `CCOC(=O)Cc1c[nH]c2cc(C(F)(F)F)nn2c1=O` as the compound, how does the melting point read?
A: 290 to 293 °C

Q: With `O=C(O)c1cn(Cc2ccccc2-c2ccccc2)c2sc(NC3CCCC3)nc2c1=O` as the compound, how does the pIC50 [2] read?
A: 5.26

Q: What about the “Cytotoxicity (relative viability below 80% regarded as cytotoxic)” value (MDCK cells) of the same compound?
A: toxic

Q: For `CCOC(=O)c1cn(CCc2ccc(Cl)cc2)c2cc(C3CC3)nn2c1=O`, which melting point is on record?
A: 190 to 195 °C

Q: For `CCOC(=O)c1cn(CCc2ccccc2)c2cc(C(C)C)nn2c1=O`, which melting point is on record?
A: 130 to 135 °C

Q: Which inhibition at 50 µM [1] does the source give for `Nc1cc2n(C(=O)C3(c4ccccc4)CCCC3)cc(C(=O)O)c(=O)n2n1` [drawing 237] here?
A: 18%

Q: Which inhibition at 50 µM [1] does the source give for `O=C(O)c1cn(Cc2ccccc2-c2ccc(Cl)cc2)c2sc(O)nc2c1=O` here?
A: 63%

Q: For `CCOC(=O)c1c[nH]c2nc(NCc3ccccc3)nn2c1=O`, which melting point is on record?
A: 275 to 278 °C

Q: Which inhibition at 50 µM [1] does the source give for `O=C(O)c1cn(Cc2ccccc2-c2ccccc2)c2nc(NCc3ccccc3)sc2c1=O` here?
A: 68%

Q: With `CSC1=NC2C(=O)C(C(=O)O)=CN(Cc3ccccc3-c3ccccc3)C2S1` (centres unmarked) as the compound, how does the pIC50 [2] read?
A: 4.92

Q: And the “Cytotoxicity (relative viability below 80% regarded as cytotoxic)” value (MDCK cells)?
A: Toxic

Q: For `CCOC(=O)c1cn(CCc2ccc(OC)cc2)c2cc(C3CC3)nn2c1=O`, which melting point is on record?
A: 160 to 165 °C

Q: Which melting point does the source give for `CCOC(=O)c1c[nH]c2c(C#N)c(CCCNC)nn2c1=O` here?
A: 285 to 287 °C

Q: Which melting point does the source give for `O=C(O)c1cn(CCc2cccc(F)c2)c2cc(C3CC3)nn2c1=O` here?
A: 220 to 225 °C
